Consider seven compounds from ChEMBL document CHEMBL1201862, “PubChem BioAssay data set” (2004).

Some test systems named below: K562; DU-145; PC-3; SK-OV-3; HT-29; MDA-N; Malme-3M; HOP-62; SK-MEL-28; CCRF-CEM; A498; SF-268; RXF 393; SK-MEL-2; OVCAR-4; KM12; UO-31; OVCAR-5; 786-0; BT-549.
Experiment in all cases: DTP human tumour cell line panel, 48 h

SMILES strings stand for the structures.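 These data come from cells grown in 96-well plates and exposed to compound for 48 hours at five concentrations. The concentration for 50% growth inhibition is given as GI50.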 Calls of active or inactive are those of the source. Cut-off read from the data, not from the text of the source: active = GI50 up to about 1.1 µM and inactive = higher.

For the compound `COc1cc2c(c(OC)c1OC)-c1ccc(SC)c(=O)cc1[C@@H](NC(=O)C(F)(F)F)CC2`, the GI50 is < 0.01 µM (active) with K562; < 0.01 µM (active) in the assay on DU-145; < 0.01 µM (active) with PC-3; 0.13 µM (active) in the assay with SK-OV-3; < 0.01 µM (active) in the assay on HT-29; < 0.01 µM (active) with MDA-N. Also, the GI50 is < 0.01 µM (active) in the assay with Malme-3M; < 0.0103 µM (active) in the assay on HOP-62; 0.766 µM (active) in the assay with SK-MEL-28; < 0.01 µM (active) in the assay on CCRF-CEM; < 0.01 µM (active) with A498; < 0.01 µM (active) in the assay on SF-268. For the same compound, the GI50 in the assay with RXF 393 was < 0.01 µM (active); in the assay on SK-MEL-2, < 0.01 µM (active); with OVCAR-4, 10.3 µM (inactive); in the assay with KM12, < 0.01 µM (active); in the assay with UO-31 it was < 0.0146 µM (active); in the assay on OVCAR-5, 0.259 µM (active). The GI50 with 786-0 is < 0.01 µM (active); in the assay on BT-549, 0.0118 µM (active).
`CCN(CC)CCN1c2ccccc2Sc2ccc3ccccc3c21`: the GI50 with K562 is 4.66 µM (inactive); in the assay on DU-145, 3.93 µM (inactive); with PC-3, 6.73 µM (inactive); in the assay with SK-OV-3, 15.8 µM (inactive); in the assay on HT-29, 3.18 µM (inactive); in the assay on MDA-N it was 12.3 µM (inactive). In addition, the GI50 with Malme-3M was 15.4 µM (inactive); with HOP-62 it was 14.9 µM (inactive); with SK-MEL-28 it was 7.46 µM (inactive); in the assay with CCRF-CEM it was 2.92 µM (inactive); in the assay on A498, 11.4 µM (inactive); with SF-268 it was 14.4 µM (inactive). Moreover, the GI50 in the assay with RXF 393 is 2.12 µM (inactive); in the assay with SK-MEL-2, 14.3 µM (inactive); in the assay on OVCAR-4 it was 5.36 µM (inactive); in the assay with KM12 it was 7 µM (inactive); in the assay with UO-31 it was 5.81 µM (inactive); in the assay on OVCAR-5 it was 9.1 µM (inactive). The GI50 in the assay on 786-0 was 11.3 µM (inactive); in the assay with BT-549 it was 14.9 µM (inactive).
In the case of `CCCCOC(=O)Nc1ccc(S(=O)(=O)Nc2c(Cl)cccc2Cl)cc1`, the GI50 with K562 is 19.6 µM (inactive); with DU-145, 38.9 µM (inactive); with PC-3, 43.3 µM (inactive); in the assay on SK-OV-3, 25.2 µM (inactive); with HT-29, 14.5 µM (inactive); with MDA-N it was 27.2 µM (inactive). Moreover, the GI50 is 26.9 µM (inactive) in the assay with Malme-3M; 49 µM (inactive) with HOP-62; 24.4 µM (inactive) in the assay with SK-MEL-28; 33.6 µM (inactive) in the assay with CCRF-CEM; 11.1 µM (inactive) with A498; 36.6 µM (inactive) in the assay with SF-268. For the same compound, the GI50 in the assay on RXF 393 is 36.9 µM (inactive); in the assay on SK-MEL-2, 26.9 µM (inactive); in the assay on OVCAR-4, 12.1 µM (inactive); with KM12 it was 36.1 µM (inactive); in the assay with UO-31, 25.6 µM (inactive); in the assay on OVCAR-5, 42 µM (inactive). Moreover, the GI50 in the assay on 786-0 was 31.3 µM (inactive); with BT-549, 17.7 µM (inactive).
`CCCC(=O)Nc1cc(/C=C/C(=O)N2C[C@H]3C[C@@]34C2=CC(=O)c2[nH]cc(C)c24)n(C)c1`: the GI50 in the assay on K562 is < 0.0025 µM (active); in the assay with DU-145, < 0.0025 µM (active); with PC-3, < 0.0025 µM (active); in the assay on SK-OV-3 it was 0.00401 µM (active); in the assay on HT-29 it was < 0.0025 µM (active); in the assay on MDA-N, < 0.0025 µM (active). In addition, the GI50 with Malme-3M, in the assay with HOP-62, in the assay on SK-MEL-28, with CCRF-CEM, in the assay on A498 and in the assay on SF-268 was < 0.0025 µM (active) each time. Moreover, the GI50 in the assay with RXF 393 was < 0.0025 µM (active); in the assay with SK-MEL-2, < 0.0025 µM (active); in the assay with OVCAR-4 it was < 0.0025 µM (active); in the assay on KM12, < 0.0025 µM (active); in the assay on UO-31 it was 0.00403 µM (active); in the assay with OVCAR-5, < 0.0025 µM (active). Also, the concentration for 50% growth inhibition (GI50) in the assay on 786-0 and in the assay on BT-549 was < 0.0025 µM (active) throughout.
For the compound `COc1ccc2c(c1)c1c(n2CCN2CCOCC2)-c2cccc(OC)c2CC1`, the GI50 with K562 was 17.3 µM (inactive); in the assay on DU-145 it was 62.4 µM (inactive); in the assay on PC-3 it was 23.7 µM (inactive); in the assay with SK-OV-3, > 100 µM (inactive); in the assay on HT-29 it was 17.1 µM (inactive); in the assay with MDA-N, 33.4 µM (inactive). Besides, the GI50 with Malme-3M is 16.9 µM (inactive); with HOP-62 it was 45.6 µM (inactive); in the assay on SK-MEL-28 it was 54.1 µM (inactive); with CCRF-CEM, 18.7 µM (inactive); in the assay on A498 it was 26.6 µM (inactive); in the assay with SF-268, > 100 µM (inactive). Further, the GI50 in the assay on RXF 393 is 24.2 µM (inactive); in the assay on SK-MEL-2, 22.3 µM (inactive); in the assay with OVCAR-4, > 100 µM (inactive); in the assay with KM12, 20.4 µM (inactive); in the assay on UO-31, 18.6 µM (inactive); in the assay on OVCAR-5 it was 55.2 µM (inactive). In addition, the GI50 was 30.4 µM (inactive) with 786-0 and 37.2 µM (inactive) with BT-549.
Take `Cc1n[nH]c(=O)n1-n1cccc1`: the GI50 in the assay on K562, with DU-145, in the assay on PC-3, in the assay on SK-OV-3, in the assay with HT-29 and in the assay on MDA-N was > 100 µM (inactive) throughout. In addition, the GI50 in the assay on Malme-3M, in the assay on HOP-62, in the assay on SK-MEL-28, in the assay on CCRF-CEM, in the assay with A498 and in the assay with SF-268 was > 100 µM (inactive) each time. The GI50 in the assay on RXF 393, in the assay on SK-MEL-2, with OVCAR-4, with KM12, in the assay on UO-31 and in the assay with OVCAR-5 was > 100 µM (inactive) throughout. Moreover, the GI50 with 786-0 and in the assay with BT-549 was > 100 µM (inactive) each time.
Take `NC(=O)NNCc1c(-c2ccccc2)no[n+]1[O-]`: the GI50 in the assay with K562, in the assay with DU-145, with PC-3, in the assay on SK-OV-3, in the assay with HT-29 and with MDA-N was > 100 µM (inactive) throughout. Further, the GI50 in the assay on Malme-3M, with HOP-62, in the assay on SK-MEL-28, with CCRF-CEM, in the assay with A498 and in the assay on SF-268 was > 100 µM (inactive) in each case. Moreover, the GI50 with RXF 393, with SK-MEL-2, in the assay on OVCAR-4, with KM12, in the assay on UO-31 and in the assay on OVCAR-5 was > 100 µM (inactive) each time. Further, the GI50 in the assay on 786-0 and in the assay with BT-549 was > 100 µM (inactive) in each case.

One may read the GI50 as the concentration that inhibits growth by half.
